From patent publication US11279733B2, “Peptide antibiotics” (priority 2017, dated 2022)
Read-outs that look alike come from different tables or passages of the source.

Tests used:
HEK293 cells = test: Cytotoxicity, resazurin assay, HEK293
Outline: (§1)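 Cells were seeded at 4000 per well and allowed to attach for 24 h at 37 °C, 5% CO2, then exposed to compounds for 24 h. Resazurin (5 μM) was added for 2 h at 37 °C and fluorescence read at 560/590 nm. CC50 was derived by curve fitting of dose-dependent growth inhibition.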

HepG2 cells = test: Cytotoxicity, resazurin assay, HepG2
Outline: as §1

Measured: CC50

polymyxin B sulfate [PolymyxinB, reference compound]
> 300 µM: HEK293 cells; read-out: HEK-293-CC50, HEK293, 24 h | HEK293 cells; read-out: HEK-293-CC50, HEK293 cells | HEK293 cells; read-out: HEK-293-CC50, Table 5, HEK293 cells | HEK293 cells; read-out: HEK-293-CC50, Table 6, HEK293 cells | HEK293 cells; read-out: HEK-293 CC50, HEK293 cells | HepG2 cells; read-out: Hep G2-CC50, HepG2, 24 h | HepG2 cells; read-out: Hep G2-CC50, HepG2 cells | HepG2 cells; read-out: Hep G2-CC50, Table 5, HepG2 cells | HepG2 cells; read-out: Hep G2-CC50, Table 6, HepG2 cells | HepG2 cells; read-out: Hep G2 CC50, HepG2 cells
